Entries after “also recorded” stand apart in the source; their conditions may differ.

For data set [1], the system named is neurofibrillary tangles (tau protein) in brain sections. Nature of the data set: Neurofibrillary tangles staining in brain sections of an Alzheimer's disease patient. Set-up: species or system human. The conditions noted are these: for specificity of staining to tau protein / neurofibrillary tangles: compared with thioflavin S (FIG. 17). The text has this:
(§1) The following explanation is made about testing of staining properties of the compounds of the present invention on brain sections of an Alzheimer's disease patient.
(§2) (1) Temporal lobe or hippocampus specimens of the brain of a patient who had been definitely diagnosed pathologically as Alzheimer's disease and of a normal aged individual were used. These specimens were provided from Fukushimura Hospital, our joint research facility, with the consent to their use for research purpose received from the bereaved family of the patient (BF Research Laboratories Institutional Ethics Board Permission No. RS-99-02).
(§3) (2) The brain tissues embedded in paraffin were sliced 6 or 8 μm thick, extended on slides, and dried. The paraffin-embedded brain sections were deparaffined by washing sequentially with xylene (10 minutes, twice), 100% ethanol (15 minutes, twice), 95% ethanol (15 minutes, twice), and a stream of water (10 minutes).
(§4) (3) Pre-treatment for staining with compounds of the present invention involved treating the sections for eliminating self-fluorescence due to lipofuscin. First, the deparaffined sections were immersed into a 10% formalin solution for 60 minutes and washed with PBS for 5 minutes, followed by immersion into a 0.25% solution of KMnO4 for 90 minutes. After washing twice with PBS for 2 minutes each, the sections were immersed into a solution of 0.1% K2S2O5/oxalic acid for about 30 seconds each, and then washed three times with PBS for 2 minutes each.
(§5) (4) About 150 μl of a 100 μM solution of a compound of the present invention dissolved in 50% ethanol was added dropwise onto the sections and allowed the reaction to be carried out for 10 minutes. The sections were dipped into tap water five times, and then 50% ethanol three to five times, followed by immediate classification. After that, the sections were immersed into PBS for 60 minutes, enclosed with Fluor Save Reagent (Calbiochem), and examined under a fluorescent microscope (Nikon, Eclips E800) . Pictures were taken using a digital camera (Plaroid PDMCII).
(b) Procedures for Immunostaining Neurofibrillary Tangles:
(1) Immunostaining of neurofibrillary tangles was carried out as follows. After the sections were deparaffined, the sections were washed twice with distilled water for 2 minutes each, tissues were marked with an Immunopen. About 150 μl of 3% hydrogen peroxide (diluted in methanol) was added dropwise and allowed to stand at room temperature for 10 minutes.
(2) The sections were washed twice with cold PBS-Tween 20 for 5 minutes each, and two drops of blocking serum were added and allowed the reaction to be carried out at 37° C. for 30 minutes. Excess water was removed, and two drops of pSer422, an antibody specific to phosphorylated tau (Wako Phosphorylated Tau Immunohistostain Kit 299-57301) and allowed the reaction to be carried out overnight at 4° C.
(3) On the next day, the sections were washed five times with cold PBS-Tween 20 for 2 minutes each, and two drops of a solution of goat anti-rabbit IgG conjugated to biotin were added and allowed the reaction to be carried out at 37° C. for 1 hour. After that, the sections were washed three times with cold PBS-Tween 20 for 2 minutes each, and two drops of ABS solution (a streptavidin-biotin-peroxidase complex solution) were added and allowed to stand for 30 minutes.
(4) The sections were again washed three times with cold PBS-Tween 20 for 2 minutes each, and about 150 μl of DAB solution (prepared by dissolving 10 mg of DAB in 20 ml of 0.05 mol/l Tris-HCl buffer and adding 100 μl of 3% hydrogen peroxide immediately before use) were added and allowed the color to be developed sufficiently. Then, the sections were washed with distilled water for 1 minute to stop the reaction, enclosed, and examined under a microscope. The blocking serum, the solution of goat anti-rabbit IgG conjugated to biotin, and the ABC solution used were those contained in a Phosphorylated Tau Immunohistostain Kit (Wako 299-57301).

Data set [2] has as its system senile plaques and diffuse plaques (amyloid β-protein) in brain sections. Nature of the data set: Staining of senile plaques and diffuse plaques in brain sections of an Alzheimer's disease patient. The conditions noted are these: for staining properties in sections of the brain of a patient with Alzheimer's disease (senile plaques): 100 μM compound in 50% ethanol, compared with thioflavin S or anti-Aβ antibody 6F/3D on adjacent section; for staining of diffuse plaques in sections of the brain of a patient with Alzheimer's disease: 100 μM compound, diffuse plaques stained with anti-Aβ antibody 6F/3D on adjacent section. Further details: species or system human.
Text: as §1, §2, §3, §4, §5
Immunostaining was carried out as follows.
(a) Procedures for Immunostaining Amyloid β-Protein:
(1) After the sections were deparaffined, the sections were washed twice in distilled water for 2 minutes each, and tissues were marked with an Immunopen. About 150 μl of formic acid was added dropwise and allowed to stand at room temperature for 5 minutes. The sections were washed with tap water for 5 minutes and immersed into cold PBS-Tween 20 for 2 minutes, and then about 150 μl of a 0.05% trypsin solution was added dropwise and allowed the reaction to be carried out at 37° C. for 15 minutes.
(2) In an ice bath, the sections were washed twice with cold PBS-Tween 20 for 5 minutes each, and two drops of blocking serum were added and allowed the reaction to be carried out at 37° C. for 15 minutes. Excess water was removed, and about 150 μl of 6F/3D, an antibody specific to amyloid β-protein (DAKO; diluted 1:50) was added dropwise and allowed the reaction to be carried out at 37° C. for 1 hour.
(3) Further, after washing five times with cold PBS-Tween 20 for 2 minutes each, two drops of a solution of goat anti-mouse IgG (H+L) conjugated to biotin were added and allowed the reaction to be carried out at 37° C. for 1 hour. After that, the sections were washed three times with cold PBS-Tween 20 for 2 minutes each, and two drops of ABS solution (a streptavidin-biotin-peroxidase complex solution) were added and allowed to stand for 30 minutes. The sections were again washed three times with cold PBS-Tween 20 for 2 minutes each, and about 150 μl of DAB solution (prepared by dissolving 10 mg of DAB in 20 ml of 0.05 mol/l Tris-HCl buffer and adding 100 μl of 3% hydrogen peroxide immediately before use) were added and allowed the color to be developed sufficiently. Then, the sections were washed with distilled water for 1 minute to stop the reaction, enclosed, and examined under a microscope.

The nature of data set [3]: Acute toxicity testing by intravenous administration. Type of data set: in vivo. Conditions: male Crj:CD1 mice, observed up to 7 days. How it is done:
(A) Testing of Acute Toxicity
Acute toxicity of the inventive compounds was determined employing mice by intravenous administration. Male Crj:CD1 mice were used and divided into groups of 4 mice, with an average weight of each group of 31-32 g. […] Up to 7 days after administration, observations were made.

A short description of a further data set: Clearance from the brain. Conditions: in vivo.
The nature of data set [4]: Blood-brain barrier permeability after intravenous administration. It is filed as in vivo. Conditions: Slc:ICR, mouse, not told; mice, two minutes after intravenous administration; read-out: content in Brain (blood-brain barrier permeability). The text has this:
(B) Testing of Blood-Brain Barrier Permeability

`CN(C)c1ncc(-c2ccc3ccccc3n2)o1` [BF-221, 2-(2-dimethylaminooxazol-5-yl)quinoline]: in data set [1] (adjacent section immunostained with pSer422 (FIG. 18)), the “staining of phosphorylated tau protein recognized by antibody pSer422” value is given as “stained phosphorylated tau protein”. The “specificity of staining to tau protein / neurofibrillary tangles” value in data set [1] was “high specificity to tau protein”.

Take `Nc1ncc(-c2ccc3ccccc3n2)o1` [BF-239, 2-(2-aminooxazol-5-yl)quinoline]: the “specificity of staining to tau protein / neurofibrillary tangles” value in data set [1] was “high selectivity to neurofibrillary tangles”. For `CNc1ccc(/C=C/C=C/C=C/c2ccc3ccccc3n2)cc1` [BF-189, 1-(4-methylaminophenyl)-6-(2-quinolyl)-1,3,5-hexatrien], the “staining properties in sections of the brain of a patient with Alzheimer's disease (senile plaques)” value (“staining properties in sections” below) in data set [2] is “stains senile plaques”. The same measure, in the same setting: as for `CN(C)c1ncc(/C=C/c2nc3ccccc3s2)s1` [BF-196, 2-[2-(2-dimethylaminothiazol-5-yl)ethenyl]benzothiazole], the entry is “mainly stains senile plaques”.

Regarding `Nc1ccc(/C=C/C=C/c2nc3ccc(O)cc3o2)c(O)c1` [BF-201], in data set [2], the “staining properties in sections” value was “stains senile plaques”. For the same molecule, in data set [3] (mouse, in vivo, read-out: Maximum Tolerated Dose), the MTD at 7 days was at least 10 mg/kg. For `Nc1ncc(-c2ccc3ccccc3n2)s1` [BF-240, 2-(2-aminothiazol-5-yl)quinoline], in data set [1], the “specificity of staining to tau protein / neurofibrillary tangles” value is “high selectivity to neurofibrillary tangles”. Consider `CN(C)c1ncc(/C=C/c2nc3ccc(OCCF)cc3o2)s1` [BF-227, 2-[2-(2-dimethylaminothiazol-5-yl)ethenyl]-6-(2-fluoroethyloxy)benzoxazole], for which, in data set [2], the “staining properties in sections” value is listed as “mainly stains senile plaques”; the “staining of diffuse plaques in sections of the brain of a patient with Alzheimer's disease” value was “stains; also recorded: display affinity also for diffuse plaques and provide their clear staining”. Moreover, the “clearance from the brain” value in the data set “Clearance from the brain” is “rapid clearance from the brain”. Regarding thioflavin S [reference compound], the “staining properties in sections” value in data set [2] is “stains both senile plaques and neurofibrillary tangles”. Besides, the “specificity of staining to tau protein / neurofibrillary tangles” value in data set [1] was “provided enough staining of proteins other than tau protein”. Take `Cc1nc(/C=C/c2cnc(N(C)C)s2)oc1C` [BF-214, 2-(dimethylamino)-5-[2-(4,5-dimethyloxazol-2-yl)ethenyl]thiazole]: the “staining properties in sections” value in data set [2] was “stains senile plaques”.

With `O=C(O)c1cc(/C=C/c2ccc(/C=C/c3ccc(O)c(C(=O)O)c3)c(Br)c2)ccc1O` [BSB, reference compound], the “staining properties in sections” value in data set [2] was “stains both senile plaques and neurofibrillary tangles”.

Regarding `Nc1cnc(-c2ccc3ccccc3n2)o1` [BF-255], the “specificity of staining to tau protein / neurofibrillary tangles” value in data set [1] was “high selectivity to neurofibrillary tangles”. As to `CN(C)c1ncc(/C=C/c2nc3ccccc3o2)s1` [BF-197, 2-[2-(2-dimethylaminothiazol-5-yl)ethenyl]benzoxazole], the “staining properties in sections” value in data set [2] was “mainly stains senile plaques”. Turning to `CNc1ccc(/C=C/C=C/c2nc3ccccc3o2)cc1` [BF-185, 2-[[4-(4-methylamino)phenyl]-1,3-butadienyl)benzoxazole], in data set [2], the “staining properties in sections” value was “mainly stains senile plaques”; the “staining of diffuse plaques in sections of the brain of a patient with Alzheimer's disease” value was “stains; also recorded: display affinity also for diffuse plaques and provide their clear staining”. Moreover, in data set [3], the “Maximum Tolerated Dose” value was “≧10 mg/kg”. Also, the tissue uptake at 2 min in data set [4] is 3.9 %ID/g. Take `CNc1ccc(/C=C/C=C/c2nc3ccccc3s2)cc1` [BF-187, 2-[[4-(4-methylamino)phenyl]-1,3-butadienyl)benzothiazole]: the “staining properties in sections” value in data set [2] is “stains senile plaques”. In addition, in data set [3], the “Maximum Tolerated Dose” value is given as “≧10 mg/kg”. The tissue uptake at 2 min in data set [4] is 3.6 %ID/g. For `CN(C)c1ncc(-c2nc3ccccc3o2)s1` [BF-225, 2-(2-dimethylaminothiazol-5-yl)benzoxazole], the “Maximum Tolerated Dose” value in data set [3] is reported as “≧10 mg/kg”.

Take `CNc1ccc(/C=C/C=C/c2nc3ccccc3[nH]2)cc1` [BF-188, 2-[[4-(4-methylamino)phenyl]1,3-butadienyl]benzoimidazole]: in data set [2], the “staining properties in sections” value is listed as “stains senile plaques”. Also, the tissue uptake at 2 min in data set [4] stood at 4.8 %ID/g.

These data come from patent publication US20060018825A1, “Probe for diseases with amyloid accumulation, amyloid-staining agent, remedy and preventive for diseases with amyloid accumulation and diagnostic probe and staining agent for neurofibrillary change” (BF RESEARCH INSTITUTE, INC., priority 2003, published 2006).
